Values of other authors as cited in patent publication US20230149295A1, “INFLAMMATORY BOWEL DISEASE STEM CELLS, AGENTS WHICH TARGET IBD STEM CELLS, AND USES RELATED THERETO” (University of Houston System, priority 2020, published 2023).

What was measured:
STAT3 = STAT3 (Homo sapiens, UniProt P40763); details: cell-free assays; read-out: IC50 for inhibition of STAT3 activation and nuclear translocation
STAT1 = target: T1, STAT1 (Homo sapiens, UniProt P42224); details: cell-free assays
T1 sequence (P42224 1-750): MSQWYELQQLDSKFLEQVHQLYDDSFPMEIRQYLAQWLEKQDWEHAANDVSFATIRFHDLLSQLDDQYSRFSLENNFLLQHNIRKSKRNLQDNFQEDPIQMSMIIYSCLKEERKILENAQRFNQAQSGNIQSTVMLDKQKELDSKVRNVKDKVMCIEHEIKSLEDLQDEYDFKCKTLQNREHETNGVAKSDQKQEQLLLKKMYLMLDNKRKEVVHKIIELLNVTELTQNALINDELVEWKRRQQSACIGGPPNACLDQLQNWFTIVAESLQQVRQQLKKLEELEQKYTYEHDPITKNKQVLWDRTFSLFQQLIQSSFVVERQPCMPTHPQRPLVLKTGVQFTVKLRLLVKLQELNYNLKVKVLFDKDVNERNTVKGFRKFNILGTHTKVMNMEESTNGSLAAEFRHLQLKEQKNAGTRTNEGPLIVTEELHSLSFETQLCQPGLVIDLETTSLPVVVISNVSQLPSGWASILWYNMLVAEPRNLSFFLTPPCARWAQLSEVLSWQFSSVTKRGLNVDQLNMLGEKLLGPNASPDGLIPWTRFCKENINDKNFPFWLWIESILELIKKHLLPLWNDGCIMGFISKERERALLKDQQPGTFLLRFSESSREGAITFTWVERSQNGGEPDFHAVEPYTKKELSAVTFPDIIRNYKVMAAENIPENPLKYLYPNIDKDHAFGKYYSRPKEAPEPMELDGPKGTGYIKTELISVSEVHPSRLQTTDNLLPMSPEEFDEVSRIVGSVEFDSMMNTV

Chain of STAT3 (P40763 whole entry, species assumed): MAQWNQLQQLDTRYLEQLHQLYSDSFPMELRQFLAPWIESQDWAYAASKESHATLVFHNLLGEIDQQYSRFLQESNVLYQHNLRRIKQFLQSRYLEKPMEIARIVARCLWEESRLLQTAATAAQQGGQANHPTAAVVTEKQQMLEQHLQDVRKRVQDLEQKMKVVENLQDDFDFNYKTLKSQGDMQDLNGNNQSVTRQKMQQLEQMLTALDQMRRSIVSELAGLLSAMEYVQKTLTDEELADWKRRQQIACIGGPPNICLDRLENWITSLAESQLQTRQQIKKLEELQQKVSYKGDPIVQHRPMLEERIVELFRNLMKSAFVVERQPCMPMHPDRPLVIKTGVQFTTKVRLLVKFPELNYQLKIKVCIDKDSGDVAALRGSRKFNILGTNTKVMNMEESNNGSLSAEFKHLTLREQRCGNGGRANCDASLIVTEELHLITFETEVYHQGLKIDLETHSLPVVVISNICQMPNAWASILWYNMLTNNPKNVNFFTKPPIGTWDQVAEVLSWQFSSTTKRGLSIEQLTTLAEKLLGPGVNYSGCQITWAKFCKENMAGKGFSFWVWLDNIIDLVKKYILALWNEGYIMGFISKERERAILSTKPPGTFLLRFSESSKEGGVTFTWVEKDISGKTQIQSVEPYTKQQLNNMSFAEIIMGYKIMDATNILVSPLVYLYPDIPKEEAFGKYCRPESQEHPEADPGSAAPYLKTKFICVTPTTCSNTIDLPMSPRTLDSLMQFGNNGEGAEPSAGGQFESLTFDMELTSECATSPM

## O=[N+]([O-])c1ccc2c(c1)S(=O)(=O)C=C2 [Stattic]
STAT3
  IC50: 5.1 µM
STAT1
  selectivity for STAT3 over STAT1: highly selectivity over STAT1

## C=CC(=O)Nc1cccc(Sc2nc(Nc3ccc(N4CCN(C)CC4)cc3)ncc2Cl)c1 [WZ8040]
ERBB2
  inhibition of ERBB2 phosphorylation (T7981): does not inhibit
